Measured values as given in patent US12350270B2, “Antimalarial agents” (Merck Sharp & Dohme LLC, priority 2019, dated 2025).

The compounds below were run on parasites (ring stage, in human red blood cell culture) (assay: Parasite LDH growth assay (antiparasite potency, Parasite Assay)). Conditions: 0.7% rings, 2% haematocrit, 72 hours at 37° C., LDH readout of parasite growth.
Assay type: cell-based, Plasmodium falciparum
Procedure, shortened: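 Growth was read by an LDH assay after a freeze–thaw cycle (−80 °C overnight, 4 h thaw at RT). Before that, parasites grew with compound for 72 h at 37 °C under gassed, humidified conditions. The input was a ring-stage culture adjusted to 0.7% parasitemia and 2% haematocrit in serum (5%)/albumax (0.5%)-supplemented RPMI-Hepes.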
Work on CC1(C)CC(=O)N([C@@H]2CC(C)(C)Oc3ccc(C(=O)N[C@@H]4c5ccccc5OC[C@H]4O)cc32)C(=N)N1 [Example 56A, (R)-N-((3S,4R)-3-hydroxychroman-4-yl)-4-(2-imino-4,4-dimethyl-6-oxotetrahydropyrimidin-1(2H)-yl)-2,2-dimethylchromane-6-carboxamide] yielded an EC50 of 26.9 nM. Work on CCC1(CC)C[C@@H](N2C(=N)NC(C)(C)CC2=O)c2cc(C(=O)N[C@@H]3c4ccccc4OC[C@H]3O)ccc2O1 [Example 57A, (R)-2,2-diethyl-N-((3S,4R)-3-hydroxychroman-4-yl)-4-(2-imino-4,4-dimethyl-6-oxotetrahydropyrimidin-1(2H)-yl)chromane-6-carboxamide] yielded an EC50 of 18.3 nM. With CCC1(CC)CC(=O)N([C@H]2c3cc(C(=O)N[C@@H]4c5ccccc5OC(C)(C)[C@H]4O)ccc3OCC2OC)C(=N)N1 (stereo partly drawn) [Example 67A, (3R,4S)-4-(4,4-diethyl-2-imino-6-oxotetrahydropyrimidin-1(2H)-yl)-N-((3S,4R)-3-hydroxy-2,2-dimethylchroman-4-yl)-3-methoxychromane-6-carboxamide] the EC50 was 170 nM.

Same assay, conditions: Plasmodium falciparum, Erythrocyte, 72 h, 0.7% rings, 2% haematocrit, 72 hours at 37° C., LDH readout of parasite growth
In the case of CC1(C)CC(=O)N([C@@H]2CC(C)(C)Oc3ccc(C(=O)N[C@H]4c5cc(F)ccc5OC(C)(C)[C@@H]4O)cc32)C(=N)N1 [Example 58A, (R)-N-((3R,4S)-6-fluoro-3-hydroxy-2,2-dimethylchroman-4-yl)-4-(2-imino-4,4-dimethyl-6-oxotetrahydropyrimidin-1(2H)-yl)-2,2-dimethylchromane-6-carboxamide], the EC50 is reported as 250 nM. Work on CC1(C)CC(=O)N([C@@H]2CC(C)(C)Oc3ccc(C(=O)N[C@@H]4c5cc(F)ccc5OC(C)(C)[C@H]4O)cc32)C(=N)N1 [Example 58B, (R)-N-((3S,4R)-6-fluoro-3-hydroxy-2,2-dimethylchroman-4-yl)-4-(2-imino-4,4-dimethyl-6-oxotetrahydropyrimidin-1(2H)-yl)-2,2-dimethylchromane-6-carboxamide] yielded an EC50 of 3.8 nM. Work on CCC1(CC)C[C@@H](N2C(=N)NC(C)(C)CC2=O)c2cc(C(=O)N[C@H]3c4cc(F)ccc4OC(C)(C)[C@@H]3O)ccc2O1 [Example 59A, (R)-2,2-diethyl-N-((3R,4S)-6-fluoro-3-hydroxy-2,2-dimethylchroman-4-yl)-4-(2-imino-4,4-dimethyl-6-oxotetrahydropyrimidin-yl)chromane-6-carboxamide] yielded an EC50 of 210 nM. CCC1(CC)C[C@@H](N2C(=N)NC(C)(C)CC2=O)c2cc(C(=O)N[C@@H]3c4cc(F)ccc4OC(C)(C)[C@H]3O)ccc2O1 [Example 59B, (R)-2,2-diethyl-N-((3S,4R)-6-fluoro-3-hydroxy-2,2-dimethylchroman-4-yl)-4-(2-imino-4,4-dimethyl-6-oxotetrahydropyrimidin-1(2H)-yl)chromane-6-carboxamide] was tested, and the EC50 was 1.6 nM. Compound CC1(C)CC(=O)N([C@@H]2CCOc3ccc(C(=O)N[C@@H]4c5ccccc5C[C@H]4O)cc32)C(=N)N1 [Example 61A, (R)-N-((1R,2R)-2-hydroxy-2,3-dihydro-1H-inden-l-yl)-4-(2-imino-4,4-dimethyl-6-oxotetrahydropyrimidin-1(2H)-yl)chromane-6-carboxamide] has an EC50 of 8.4 nM. With CC1(C)CC(=O)N([C@@H]2CCOc3ccc(C(=O)N[C@@H]4c5ccccc5OC(C)(C)[C@H]4O)cc32)C(=N)N1 [Example 62A, (R)-N-((3S,4R)-3-hydroxy-2,2-dimethylchroman-4-yl)-4-(2-imino-4,4-dimethyl-6-oxotetrahydropyrimidin-1(2H)-yl)chromane-6-carboxamide] the EC50 was 1.2 nM. With CCC1(CC)CC(=O)N([C@@H]2CCOc3ccc(C(=O)NC4CC(=O)Oc5ccccc54)cc32)C(=N)N1 (stereo partly drawn) [Example 63A, (4R)-4-(4,4-diethyl-2-imino-6-oxotetrahydropyrimidin-1(2H)-yl)-N-(2-oxochroman-4-yl)chromane-6-carboxamide] the EC50 was 220 nM. Compound CCC1(CC)CC(=O)N([C@@H]2CCOc3ccc(C(=O)N4Cc5ccccc5C4)cc32)C(=N)N1 [Example 66A, (R)-6,6-diethyl-2-imino-3-(6-(isoindoline-2-carbonyl)chroman-4-yl)tetrahydropyrimidin-4(1H)-one] has an EC50 of 76 nM.
